According to patent publication US8987249B2, “Substituted 2-Aza-bicyclo[2.2.1]heptane-3-carboxylic acid (benzyl-cyano-methyl)-amides inhibitors of Cathepsin C” (Boehringer Ingelheim International GmbH, priority 2013, dated 2015):

How the values were obtained:
[1] = biological target: recombinant human Cathepsin K (Homo sapiens (Human), UniProt P43235); assay: Inhibition of human Cathepsin K; assay type: biochemical; conditions: substrate Z-Gly-Pro-Arg-AMC
Method in brief: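 Proenzyme activated in pH 3.5 sodium acetate for 30 min at room temperature. Enzyme (2 ng/μL final) preincubated 10 min with compound (0.1 nM–100 μM, 1% DMSO) in pH 5.5 acetate/EDTA/L-cysteine buffer, then reacted 60 min at room temperature with Z-Gly-Pro-Arg-AMC. Stopped with 1 μM E64; fluorescence Ex 360/Em 460 nm; IC50 from background-subtracted percent of vehicle control.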

[2] = Determination of metabolic stability with human liver microsomes; conditions: pooled human liver microsomes; for half-life at 1 μM: human, pH 7.6; for In vitro stability in human liver microsome incubations t½: 1 μM test compound, 37° C., NADPH
[3] = biological target: recombinant human DPPI (Cathepsin C) (Homo sapiens (Human), UniProt P53634); assay: Inhibition of human DPPI (Cathepsin C); assay type: biochemical; conditions: substrate Gly-Arg-AMC
recombinant human DPPI (Cathepsin C), sequence (P53634 231-394): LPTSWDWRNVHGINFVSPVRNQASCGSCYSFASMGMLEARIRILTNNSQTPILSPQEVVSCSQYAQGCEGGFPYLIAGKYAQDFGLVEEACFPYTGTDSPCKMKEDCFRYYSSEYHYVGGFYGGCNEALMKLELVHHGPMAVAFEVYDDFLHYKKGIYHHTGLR
recombinant human DPPI (Cathepsin C), sequence (P53634 395-463): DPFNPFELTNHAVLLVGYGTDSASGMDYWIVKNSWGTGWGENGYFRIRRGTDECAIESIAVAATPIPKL
recombinant human DPPI (Cathepsin C), sequence (P53634 25-134): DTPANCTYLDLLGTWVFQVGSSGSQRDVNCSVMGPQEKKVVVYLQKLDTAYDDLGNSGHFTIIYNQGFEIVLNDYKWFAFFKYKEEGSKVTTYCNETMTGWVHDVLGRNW
Method in brief: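 Recombinant human DPPI in MES buffer pH 6.0 (5 mM DTT, 0.1% BSA); fluorogenic substrate at 50 μM final, 30 min at room temperature, stopped with 1 μM Gly-Phe-DMK. Background-subtracted fluorescence expressed as percent of vehicle control; IC50 derived.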

recombinant human Cathepsin K, sequence (P43235 115-329): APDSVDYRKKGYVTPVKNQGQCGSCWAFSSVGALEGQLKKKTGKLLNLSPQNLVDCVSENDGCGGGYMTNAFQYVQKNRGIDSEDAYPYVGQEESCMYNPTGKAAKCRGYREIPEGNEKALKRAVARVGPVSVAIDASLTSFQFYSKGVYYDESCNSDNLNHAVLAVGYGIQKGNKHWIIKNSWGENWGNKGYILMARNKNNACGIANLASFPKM

## N#C[C@H](Cc1ccc(-c2cnn(C[C@@H]3CCOC3)c2)cc1F)NC(=O)[C@H]1N[C@@H]2CC[C@H]1C2 [Example 262]
[1]
  IC50: 2800 nM
[2]
  half-life at 1 μM: > 2 h
[3]
  IC50: 6.4 nM

## CS(=O)(=NC#N)c1ccc(-c2ccc(C[C@@H](C#N)NC(=O)[C@H]3N[C@@H]4CC[C@H]3C4)c(F)c2)cc1 (stereo partly drawn) [Example 263]
[1]
  IC50: 2100 nM
[2]
  half-life at 1 μM: > 2.17 h
[3]
  IC50: 11.8 nM

## CC(C)N1CCCN(c2ccc(C[C@@H](C#N)NC(=O)[C@H]3N[C@@H]4CC[C@H]3C4)c(F)c2)CC1 [Example 267]
[1]
  IC50: 4700 nM
[2]
  half-life at 1 μM: > 2.17 h
[3]
  IC50: 10.5 nM

## CO[C@@H]1C[C@@H]2CN(c3ccc(C[C@@H](C#N)NC(=O)[C@H]4N[C@@H]5CC[C@H]4C5)c(F)c3)CCN2C1 [Example 269]
[1]
  IC50: 1700 nM
[2]
  half-life at 1 μM: > 2.17 h
[3]
  IC50: 9.4 nM

## N#C[C@H](Cc1ccc(N2CCN3CCC[C@H]3C2)cc1F)NC(=O)[C@H]1N[C@@H]2CC[C@H]1C2 [Example 270]
[1]
  IC50: 6100 nM
[2]
  half-life at 1 μM: > 2.17 h
[3]
  IC50: 6.3 nM

## C[S+]([O-])c1ccc(-c2ccc(C[C@@H](C#N)NC(=O)[C@H]3N[C@@H]4CC[C@H]3C4)c(F)c2)cc1 (stereo partly drawn) [Example 274]
[1]
  IC50: 3500 nM
[2]
  half-life at 1 μM: > 2.08 h
[3]
  IC50: 6.5 nM

## CS(=O)(=O)c1cc(OCC(F)(F)F)cc(-c2ccc(C[C@@H](C#N)NC(=O)[C@H]3N[C@@H]4CC[C@H]3C4)c(F)c2)c1 [Example 276]
[1]
  IC50: 5500 nM
[2]
  In vitro stability in human liver microsome incubations t½: 2.17 h
[3]
  IC50: 14.1 nM

## N#C[C@H](Cc1ccc(C2=CCN3CCOCC3C2)cc1F)NC(=O)[C@H]1N[C@@H]2CC[C@H]1C2 (stereo partly drawn) [Example 281]
[1]
  IC50: 1900 nM
[2]
  half-life at 1 μM: > 2.17 h
[3]
  IC50: 3.3 nM

## N#C[C@H](Cc1ccc(-c2ccc(C(=O)N3CCOCC3)o2)cc1F)NC(=O)[C@H]1N[C@@H]2CC[C@H]1C2 [Example 288]
[1]
  IC50: 2200 nM
[2]
  half-life at 1 μM: > 2.17 h
[3]
  IC50: 2.3 nM

## N#CC(Cc1cc2c(=O)[nH]c3cc(F)ccc3c2cc1F)NC(=O)[C@H]1N[C@@H]2CC[C@H]1C2 (stereo partly drawn) [Example 293]
[1]
  IC50: 2700 nM
[2]
  half-life at 1 μM: > 2.17 h
[3]
  IC50: 1.3 nM

## N#CC(Cc1cc2c(=O)[nH]c3ccccc3c2cc1F)NC(=O)[C@H]1N[C@@H]2CC[C@H]1C2 (stereo partly drawn) [Example 294]
[1]
  IC50: 2200 nM
[2]
  half-life at 1 μM: > 2.17 h
[3]
  IC50: 1.6 nM

## N#CC(Cc1cc2c(=O)[nH]c3ccc(F)cc3c2cc1F)NC(=O)[C@H]1N[C@@H]2CC[C@H]1C2 (stereo partly drawn) [Example 295]
[1]
  IC50: 4700 nM
[2]
  half-life at 1 μM: > 2.17 h
[3]
  IC50: 2.1 nM

## N#CC(Cc1ccc2c(c1)c(=O)[nH]c1c(F)c(F)c(F)cc12)NC(=O)[C@H]1N[C@@H]2CC[C@H]1C2 (stereo partly drawn) [Example 296]
[1]
  IC50: > 30000 nM
[2]
  half-life at 1 μM: > 2.17 h
[3]
  IC50: 2.9 nM

## N#Cc1ccc2[nH]c(=O)c3cc(CC(C#N)NC(=O)[C@H]4N[C@@H]5CC[C@H]4C5)ccc3c2c1 (stereo partly drawn) [Example 298]
[1]
  IC50: 17600 nM
[2]
  half-life at 1 μM: 1.75 h
[3]
  IC50: 3.2 nM

## N#CC(Cc1ccc2c(c1)c(=O)[nH]c1c(F)c(F)ccc12)NC(=O)[C@H]1N[C@@H]2CC[C@H]1C2 (stereo partly drawn) [Example 300]
[1]
  IC50: 23100 nM
[2]
  half-life at 1 μM: > 2.17 h
[3]
  IC50: 3.8 nM

## N#C[C@H](Cc1ccc2c(c1)c(=O)[nH]c1cc(C(F)(F)F)ccc12)NC(=O)[C@H]1N[C@@H]2CC[C@H]1C2 [Example 301]
[1]
  IC50: 19500 nM
[2]
  half-life at 1 μM: 1.67 h
[3]
  IC50: 4.5 nM

## Cn1c(=O)c2cc(CC(C#N)NC(=O)[C@H]3N[C@@H]4CC[C@H]3C4)ccc2c2ccc(C#N)cc21 (stereo partly drawn) [Example 303]
[1]
  IC50: 22200 nM
[2]
  half-life at 1 μM: > 2.17 h
[3]
  IC50: 5 nM

## N#CC(Cc1ccc2c(cnc3cc(F)ccc32)c1)NC(=O)[C@H]1N[C@@H]2CC[C@H]1C2 (stereo partly drawn) [Example 315, (1S,2S,4R)—N-[1-cyano-2-(3-fluorophenanthridin-8-yl)ethyl]-3-azabicyclo[2.2.1]heptane-2-carboxamide]
[1]
  IC50: > 30000 nM
[2]
  half-life at 1 μM: 1.53 h
[3]
  IC50: 13.5 nM

## CN1CCC(Oc2ccc(C[C@@H](C#N)NC(=O)[C@H]3N[C@@H]4CC[C@H]3C4)c(F)c2)CC1 [Example 319, (1S,2S,4R)—N-[(1S)-1-cyano-2-[2-fluoro-4-[(1-methyl-4-piperidyl)oxy]phenyl]ethyl]-3-azabicyclo[2.2.1]heptane-2-carboxamide]
[1]
  IC50: 4500 nM
[2]
  half-life at 1 μM: > 2.17 h
[3]
  IC50: 17.5 nM

## N#C[C@H](Cc1cc2c(=O)[nH]c3ccccc3c2cc1F)NC(=O)[C@H]1N[C@@H]2CC[C@H]1C2 [Example 322]
[1]
  IC50: 1100 nM
[2]
  half-life at 1 μM: > 2.17 h
[3]
  IC50: 0.8 nM

## N#C[C@H](Cc1cc2c(=O)[nH]c3cc(F)ccc3c2cc1F)NC(=O)[C@H]1N[C@@H]2CC[C@H]1C2 [Example 323]
[1]
  IC50: 900 nM
[2]
  half-life at 1 μM: > 2.17 h
[3]
  IC50: 0.8 nM

## N#C[C@H](Cc1cc2c(=O)[nH]c3c(F)c(F)ccc3c2cc1F)NC(=O)[C@H]1N[C@@H]2CC[C@H]1C2 [Example 324]
[1]
  IC50: 800 nM
[2]
  half-life at 1 μM: > 2.17 h
[3]
  IC50: 1 nM

## N#Cc1cc(F)c2[nH]c(=O)c3cc(C[C@@H](C#N)NC(=O)[C@H]4N[C@@H]5CC[C@H]4C5)c(F)cc3c2c1 [Example 325]
[1]
  IC50: 2300 nM
[2]
  half-life at 1 μM: > 2.17 h
[3]
  IC50: 1.3 nM

## CN1CC2(C1)CN(c1ccc(C[C@@H](C#N)NC(=O)[C@H]3N[C@@H]4CC[C@H]3C4)c(F)c1)C2 [Example 330]
[1]
  IC50: 6600 nM
[2]
  half-life at 1 μM: > 2.17 h
[3]
  IC50: 7.8 nM

## N#C[C@H](Cc1ccc(-c2ccc(=O)n(CC(F)F)c2)cc1F)NC(=O)[C@H]1N[C@@H]2CC[C@H]1C2 [Example 343]
[1]
  IC50: 5300 nM
[2]
  half-life at 1 μM: > 2.17 h
[3]
  IC50: 4.5 nM

## CN(C)C1CCCN(c2ccc(C[C@@H](C#N)NC(=O)[C@H]3N[C@@H]4CC[C@H]3C4)c(F)c2)C1 (stereo partly drawn) [Example 344, (1S,2S,4R)—N-[(1S)-1-cyano-2-[4-[3-(dimethylamino)-1-piperidyl]-2-fluoro-phenyl]ethyl]-3-azabicyclo[2.2.1]heptane-2-carboxamide]
[1]
  IC50: 6200 nM
[2]
  half-life at 1 μM: 1.83 h
[3]
  IC50: 10 nM

## CN(C)CC1CCCN(c2ccc(C[C@@H](C#N)NC(=O)[C@H]3N[C@@H]4CC[C@H]3C4)c(F)c2)C1 (stereo partly drawn) [Example 345]
[1]
  IC50: 9200 nM
[2]
  half-life at 1 μM: > 2.17 h
[3]
  IC50: 18.4 nM

## CN1CCC(N2C(=O)Cc3ccc(-c4ccc(C[C@@H](C#N)NC(=O)[C@H]5N[C@@H]6CC[C@H]5C6)c(F)c4)cc32)CC1 [Example 346]
[1]
  IC50: 4000 nM
[2]
  half-life at 1 μM: > 2.17 h
[3]
  IC50: 1 nM

## N#C[C@H](Cc1ccc(N2CC3CCN(C4CCOC4)C3C2)cc1F)NC(=O)[C@H]1N[C@@H]2CC[C@H]1C2 (stereo partly drawn) [Example 348]
[1]
  IC50: 4300 nM
[2]
  In vitro stability in human liver microsome incubations t½: 2.17 h
[3]
  IC50: 17.6 nM

## CN1CCC2CN(c3ccc(C[C@@H](C#N)NC(=O)[C@H]4N[C@@H]5CC[C@H]4C5)c(F)c3)CC21 (stereo partly drawn) [Example 349]
[1]
  IC50: 5000 nM
[2]
  half-life at 1 μM: > 2.17 h
[3]
  IC50: 20.6 nM

## CN1CCC2(CC1)CC(c1ccc(C[C@@H](C#N)NC(=O)[C@H]3N[C@@H]4CC[C@H]3C4)c(F)c1)C2 [Example 358]
[1]
  IC50: 9600 nM
[2]
  half-life at 1 μM: > 2.17 h
[3]
  IC50: 22 nM

## CN1CCC2(C=C(c3ccc(C[C@@H](C#N)NC(=O)[C@H]4N[C@@H]5CC[C@H]4C5)c(F)c3)C2)CC1 [Example 359]
[1]
  IC50: 6300 nM
[2]
  half-life at 1 μM: > 2.17 h
[3]
  IC50: 8.8 nM
